Bounds are passed on as bounds.

For the assay, the target named is T1, human mGluR4 (Homo sapiens, UniProt Q14833).
T1 construct: expressed in transfected cells
T1 sequence (Q14833 33-912): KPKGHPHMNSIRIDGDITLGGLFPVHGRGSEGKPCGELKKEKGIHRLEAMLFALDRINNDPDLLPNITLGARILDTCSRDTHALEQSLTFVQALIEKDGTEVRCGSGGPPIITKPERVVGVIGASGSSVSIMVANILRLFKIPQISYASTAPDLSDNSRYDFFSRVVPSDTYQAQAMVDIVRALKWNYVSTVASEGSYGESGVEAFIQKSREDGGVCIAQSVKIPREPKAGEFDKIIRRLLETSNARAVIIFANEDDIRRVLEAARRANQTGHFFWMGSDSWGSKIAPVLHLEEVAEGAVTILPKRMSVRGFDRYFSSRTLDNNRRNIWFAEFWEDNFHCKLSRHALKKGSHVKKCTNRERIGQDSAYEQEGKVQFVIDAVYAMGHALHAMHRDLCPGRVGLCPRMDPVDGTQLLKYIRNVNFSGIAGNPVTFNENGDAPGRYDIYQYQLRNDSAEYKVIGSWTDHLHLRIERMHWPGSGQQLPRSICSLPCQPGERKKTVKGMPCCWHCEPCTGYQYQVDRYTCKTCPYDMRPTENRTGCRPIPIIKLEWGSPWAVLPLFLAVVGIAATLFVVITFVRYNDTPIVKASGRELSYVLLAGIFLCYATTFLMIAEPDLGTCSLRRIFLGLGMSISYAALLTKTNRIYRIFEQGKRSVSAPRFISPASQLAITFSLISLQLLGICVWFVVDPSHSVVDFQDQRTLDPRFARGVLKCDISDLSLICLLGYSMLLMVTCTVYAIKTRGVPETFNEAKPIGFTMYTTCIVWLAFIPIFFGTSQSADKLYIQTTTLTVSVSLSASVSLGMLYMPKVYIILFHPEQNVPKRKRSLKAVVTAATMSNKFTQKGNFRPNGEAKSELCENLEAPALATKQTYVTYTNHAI
The assay can be described thus: Fluorescent cell based Ca2+ mobilization assay (FLIPR) on HEK-293 cells expressing human mGluR4. As to conditions: positive allosteric modulation, HEK-293 cells expressing hmGluR4, stimulated by EC25 glutamate; mean of at least three independent experiments in duplicate; read-out: Ca^2+ Flux* (mean EC50). The text has this: mGluR4 Assay on HEK-Expressing Human mGluR4
The compounds of the present invention are positive allosteric modulators of mGluR4 receptor. Their activity was examined on recombinant human mGluR4a receptors by detecting changes in intracellular Ca^2+ concentration, using the fluorescent Ca^2+-sensitive dye Fluo4-(AM) and a Fluorometric Imaging Plate Reader (FLIPR, Molecular Devices, Sunnyvale, Calif.).
The cDNA encoding the human metabotropic glutamate receptor (hmGluR4), (accession number NM_000841.1, NCBI Nucleotide database browser), was subcloned into an expression vector containing also the hygromycin resistance gene. In parallel, the cDNA encoding a G protein allowing redirection of the activation signal to intracellular calcium flux was subcloned into a different expression vector containing also the puromycin resistance gene. Transfection of both these vectors into HEK293 cells with PolyFect reagent (Qiagen) according to supplier's protocol, and hygromycin and puromycin treatment allowed selection of antibiotic resistant cells which had integrated stably one or more copies of the plasmids. Positive cellular clones expressing hmGluR4 were identified in a functional assay measuring changes in calcium fluxes in response to glutamate or selective known mGluR4 orthosteric agonists and antagonists. HEK-293 cells expressing hmGluR4 were maintained in media containing DMEM, dialyzed Fetal Calf Serum (10%), Glutamax™ (2 mM), Penicillin (100 units/mL), Streptomycin (100 μg/mL), Geneticin (100 μg/mL) and Hygromycin-B (40 μg/mL) and puromycin (1 μg/mL) at 37° C./5% CO2.
Human mGluR4 HEK-293 cells were plated out 24 hours prior to FLIPR^384 assay in black-walled, clear-bottomed, poly-L-ornithine-coated 384-well plates at a density of 25,000 cells/well in a glutamine/glutamate free DMEM medium containing foetal bovine serum (10%), penicillin (100 units/mL) and streptomycin (100 μg/mL) at 37° C./5% CO2.
On the day of the assay, the medium was aspirated and the cells were loaded with a 3 μM solution of Fluo4-AM (LuBioScience, Lucerne, Switzerland) in 0.03% pluronic acid. After 1 hour at 37° C./5% CO2, the non incorporated dye was removed by washing cell plate with the assay buffer and the cells were left in the dark at room temperature for […] before testing. All assays were performed in a pH 7.4 buffered-solution containing 20 mM HEPES, 143 mM NaCl, 6 mM KCl, 1 mM MgSO4, 1 mM CaCl2, 0.125 mM sulfapyrazone and 0.1% glucose.
After 10 s of basal fluorescence recording, various concentrations of the compounds of the invention were added to the cells. Changes in fluorescence levels were first monitored for 180 s in order to detect any agonist activity of the compounds. Then the cells were stimulated by an EC25 glutamate concentration for an additional 110 s in order to measure enhancing activities of the compounds of the invention. EC25 glutamate concentration is the concentration giving 25% of the maximal glutamate response.
The concentration-response curves of representative compounds of the present invention were generated using the Prism GraphPad software (Graph Pad Inc, San Diego, USA). The curves were fitted to a four-parameter logistic equation: (Y=Bottom+(Top−Bottom)/(1+10^((Log EC50−X)*Hill Slope) allowing the determination of EC50 values.
The Table 4 below represents the mean EC50 obtained from at least three independent experiments of selected molecules performed in duplicate.
Usually EC50 stands for the concentration at which the effect is half-maximal. For `CC(C)OCCN1CCc2sc(Nc3ncc(F)cn3)nc2-c2c[nH]nc21` [Compound 1-43, N-(5-Fluoropyrimidin-2-yl)-6-(2-isopropoxyethyl)-4,5,6,8-tetrahydropyrazolo[3,4-b]thiazolo[4,5-d]azepin-2-amine], the concentration giving a half-maximal response (EC50) is less than 0.1 µM. As for `Fc1cnc(Nc2nc3c(s2)CCN(CC2CCC2)c2n[nH]cc2-3)nc1` [Compound 1-44, 6-(Cyclobutylmethyl)-N-(5-fluoropyrimidin-2-yl)-4,5,6,8-tetrahydropyrazolo[3,4-b]thiazolo[4,5-d]azepin-2-amine], the figure is less than 0.1 µM. On to `Cn1ncc(CN2CCc3sc(Nc4ncc(F)cn4)nc3-c3cn[nH]c32)n1` [Compound 1-52, N-(5-Fluoropyrimidin-2-yl)-6-((2-methyl-2H-1,2,3-triazol-4-yl)methyl)-4,5,6,7-tetrahydropyrazolo[3,4-b]thiazolo[4,5-d]azepin-2-amine], for which the EC50 is less than 0.1 µM. Turning to `Fc1cnc(Nc2nc3c(s2)CCN(Cc2[nH]ncc2Br)c2n[nH]cc2-3)nc1` [Compound 1-57, 6-((4-Bromo-1H-pyrazol-5-yl)methyl)-N-(5-fluoropyrimidin-2-yl)-4,5,6,8-tetrahydropyrazolo[3,4-b]thiazolo[4,5-d]azepin-2-amine], the half-maximal effective concentration (EC50) was in the range of 1 to 10 µM.

For `Cc1ccnc(Nc2nc3c(s2)CCN(CC2CCCO2)c2n[nH]cc2-3)n1` (stereo not drawn) [Compound 1-10, N-(4-Methylpyrimidin-2-yl)-6-((tetrahydrofuran-2-yl)methyl)-4,5,6,8-tetrahydropyrazolo[3,4-b]thiazolo[4,5-d]azepin-2-amine], the EC50 was less than 0.1 µM. Take `Fc1cnc(Nc2nc3c(s2)CCN(Cc2ccc(Cl)cn2)c2n[nH]cc2-3)nc1` [Compound 1-41, 6-((5-Chloropyridin-2-yl)methyl)-N-(5-fluoropyrimidin-2-yl)-4,5,6,8-tetrahydropyrazolo[3,4-b]thiazolo[4,5-d]azepin-2-amine]: the EC50 is less than 0.1 µM. For the compound `CS(=O)(=O)CCN1CCc2sc(Nc3ncc(F)cn3)nc2-c2c[nH]nc21` [Compound 1-28, N-(5-Fluoropyrimidin-2-yl)-6-(2-(methylsulfonyl)ethyl)-4,5,6,8-tetrahydropyrazolo[3,4-b]thiazolo[4,5-d]azepin-2-amine], the EC50 was less than 0.1 µM. As for `COCCN1CCc2sc(Nc3ccnc(C)n3)nc2-c2c[nH]nc21` [Compound 1-54, 6-(2-Methoxyethyl)-N-(2-methylpyrimidin-4-yl)-4,5,6,8-tetrahydropyrazolo[3,4-b]thiazolo[4,5-d]azepin-2-amine], the EC50 lay in the range of 1 to 10 µM. As to `Fc1cnc(Nc2nc3c(s2)CCN(CCc2ccccc2)c2[nH]ncc2-3)nc1` [Compound 1-65, N-(5-Fluoropyrimidin-2-yl)-6-phenethyl-4,5,6,7-tetrahydropyrazolo[3,4-b]thiazolo[4,5-d]azepin-2-amine], the EC50 was in the range of 0.1 to 1 µM. Take `COCCN1CCc2sc(Nc3ccncn3)nc2-c2c[nH]nc21` [Compound 1-55, 6-(2-Methoxyethyl)-N-(pyrimidin-4-yl)-4,5,6,8-tetrahydropyrazolo[3,4-b]thiazolo[4,5-d]azepin-2-amine]: the EC50 fell in the range of 1 to 10 µM.

For the compound `Cc1nc(Nc2nc3c(s2)CCN(C)c2n[nH]cc2-3)ncc1F` [Compound 1-9, N-(5-Fluoro-4-methylpyrimidin-2-yl)-6-methyl-4,5,6,8-tetrahydropyrazolo[3,4-b]thiazolo[4,5-d]azepin-2-amine], the EC50 lay in the range of 0.1 to 1 µM.

Regarding `CN1CCc2sc(Nc3ncc(F)cn3)nc2-c2c[nH]nc21` [Compound 1-2, N-(5-Fluoropyrimidin-2-yl)-6-methyl-4,5,6,8-tetrahydropyrazolo[3,4-b]thiazolo[4,5-d]azepin-2-amine], the EC50 was in the range of 0.1 to 1 µM. With `CC(c1ccc(Cl)cn1)N1CCc2sc(Nc3ncc(F)cn3)nc2-c2cn[nH]c21` (stereo not drawn) [Compound 1-81, 6-(1-(5-Chloropyridin-2-yl)ethyl)-N-(5-fluoropyrimidin-2-yl)-4,5,6,7-tetrahydropyrazolo[3,4-b]thiazolo[4,5-d]azepin-2-amine], the EC50 was less than 0.1 µM. `Fc1cnc(Nc2nc3c(s2)CCN(Cc2ccncc2)c2n[nH]cc2-3)nc1` [Compound 1-27, N-(5-Fluoropyrimidin-2-yl)-6-(pyridin-4-ylmethyl)-4,5,6,8-tetrahydropyrazolo[3,4-b]thiazolo[4,5-d]azepin-2-amine]: the EC50 is less than 0.1 µM.

In the case of `CCN1CCc2sc(Nc3nccc(C)n3)nc2-c2c[nH]nc21` [Compound 1-3, 6-Ethyl-N-(4-methylpyrimidin-2-yl)-4,5,6,8-tetrahydropyrazolo[3,4-b]thiazolo[4,5-d]azepin-2-amine], the EC50 was less than 0.1 µM. For the compound `Fc1cnc(Nc2nc3c(s2)CCN(C[C@H]2CCCO2)c2[nH]ncc2-3)nc1` [Compound 1-51], the EC50 was less than 0.1 µM. Regarding `CC(C)c1cc(CN2CCc3nc(Nc4ncc(F)cn4)sc3-c3c[nH]nc32)no1` [Compound 1-42], the EC50 was less than 0.1 µM.

As to `Fc1cnc(Nc2nc3c(s2)CCN(Cc2ncc(Cl)s2)c2[nH]ncc2-3)nc1` [Compound 1-79, 6-((5-Chlorothiazol-2-yl)methyl)-N-(5-fluoropyrimidin-2-yl)-4,5,6,7-tetrahydropyrazolo[3,4-b]thiazolo[4,5-d]azepin-2-amine], the EC50 is 0.1 to 1 µM. In the case of `COCCN1CCc2sc(Nc3nsc(C)n3)nc2-c2c[nH]nc21` [Compound 1-19, 6-(2-Methoxyethyl)-N-(5-methyl-1,2,4-thiadiazol-3-yl)-4,5,6,8-tetrahydropyrazolo[3,4-b]thiazolo[4,5-d]azepin-2-amine] it was less than 0.1 µM; in that of `COc1ccc(CN2CCc3sc(Nc4ncc(F)cn4)nc3-c3cn[nH]c32)nc1` [Compound 1-77, N-(5-Fluoropyrimidin-2-yl)-6-((5-methoxypyridin-2-yl)methyl)-4,5,6,7-tetrahydropyrazolo[3,4-b]thiazolo[4,5-d]azepin-2-amine], less than 0.1 µM. For `Fc1cnc(Nc2nc3c(s2)CCN(CC2CC2)c2n[nH]cc2-3)nc1` [Compound 1-4, 6-(Cyclopropylmethyl)-N-(5-fluoropyrimidin-2-yl)-4,5,6,8-tetrahydropyrazolo[3,4-b]thiazolo[4,5-d]azepin-2-amine], the EC50 was less than 0.1 µM. On to `COc1cccc(CN2CCc3sc(Nc4ncc(F)cn4)nc3-c3cn[nH]c32)c1` [Compound 1-60, N-(5-Fluoropyrimidin-2-yl)-6-(3-methoxybenzyl)-4,5,6,7-tetrahydropyrazolo[3,4-b]thiazolo[4,5-d]azepin-2-amine], for which the EC50 was 0.1 to 1 µM. In the case of `COCCN1CCc2sc(Nc3nccc(OC)n3)nc2-c2c[nH]nc21` [Compound 1-18, 6-(2-Methoxyethyl)-N-(4-methoxypyrimidin-2-yl)-4,5,6,8-tetrahydropyrazolo[3,4-b]thiazolo[4,5-d]azepin-2-amine], the EC50 is less than 0.1 µM. Take `Fc1ccc(CN2CCc3sc(Nc4ncc(F)cn4)nc3-c3cn[nH]c32)nc1` [Compound 1-61, 6-((5-Fluoropyridin-2-yl)methyl)-N-(5-fluoropyrimidin-2-yl)-4,5,6,7-tetrahydropyrazolo[3,4-b]thiazolo[4,5-d]azepin-2-amine]: the EC50 is less than 0.1 µM. Consider `N#Cc1ccc(CN2CCc3sc(Nc4ncc(F)cn4)nc3-c3cn[nH]c32)cc1` [Compound 1-68, 4-((2-(5-Fluoropyrimidin-2-ylamino)-4,5-dihydropyrazolo[3,4-b]thiazolo[4,5-d]azepin-6(7H)-yl)methyl)benzonitrile], for which the EC50 is less than 0.1 µM. Take `Cc1ccnc(Nc2nc3c(s2)CCN(CC2CC2)c2n[nH]cc2-3)n1` [Compound 1-37, 6-(Cyclopropylmethyl)-N-(4-methylpyrimidin-2-yl)-4,5,6,8-tetrahydropyrazolo[3,4-b]thiazolo[4,5-d]azepin-2-amine]: the EC50 was less than 0.1 µM. For the compound `Cc1cc(CN2CCc3sc(Nc4nccc(C)n4)nc3-c3c[nH]nc32)on1` [Compound 1-46, 6-((3-Methylisoxazol-5-yl)methyl)-N-(4-methylpyrimidin-2-yl)-4,5,6,8-tetrahydropyrazolo[3,4-b]thiazolo[4,5-d]azepin-2-amine], the EC50 is less than 0.1 µM.

The values above are taken from patent publication US9765091B2, “Tetrahydropyrazolo [3,4-b] azepine derivatives and their use as allosteric modulators of metabotropic glutamate receptors” (Addex Pharma S.A., priority 2010, dated 2017).
